# From patent US5075338A (priority 1986, dated 1991)
# Experiments:
# [1] = system: noradrenaline uptake, nucleus free supernatant of rat cortex; experiment: 3H-noradrenaline uptake in the nucleus free supernatant of rat cortex; type: biochemical; conditions: 37° C., 5 minutes
# Method: II/7. Determination of ^3 H-noradrenaine uptake in the nucleus free supernatant of rat cortex (in vivo)
# The cortex is homogenized in 0.32M saccharose with a teflon potter, the cell nucleus is sedimented by centrifuging at 0° C. with 1000 g for 20 minutes; the supernatant thus obtained is used for the test. The intake is accomplished in a KrebsHeinseleit solution saturated with carbogen, in a final volume of 1 ml, at a ^3 H-noradrenaline concentration of […]. Pre-incubation and incubation are carried out at 37° C. for 5 minutes each. The reaction is stopped by adding 4 ml of ice-cold Krebs solution and the tissue is separated by GF/B filtration. Non-specific uptake is determined by using 10^-4 M nisoxetine at 37° C. The radioactivity of the GF/B filter-paper is determined by liquid scintillation measurement in a toluene-PPO-POPOPtritone mixture.
# [2] = effect exerted on motility, on rats (spontaneous passings in shuttle-box); type: in vivo, rat
# Method: II/4. Determination of effect exerted on motility, on rats
# The test is carried out in a Shuttle-box without introducing current and light. The number of spontaneous passings over from side of the box to the other is registered and summarized by the apparatus for an observation period of 30 minutes. The test is carried out on groups comprising […] CFY rats of both sexes weighing […]. The test compound of the Formula I is added prior to the test subcutaneously, together with tetrabenazine and desmethyl-imiprmine (DMI) reference compounds, respectively.
# in vivo = conditions: rat
# [3] = system: rabbit pulmonary artery, tyramine-induced noradrenaline release; conditions: for IC50: read-out: IC50, inhibition of noradrenaline releasing effect of tyramine
# [4] = effect exerted on food intake, in rats; type: in vivo, rat
# [5] = psychostimulant effect in rats: shuttle-box test; type: in vivo, rat
# [6] = system: tetrabenazine-induced depression; experiment: antagonism of tetrabenazine-induced depression in learning test: shuttle-box test; type: in vivo, rat; conditions: N = 12
# Excerpt: (§1) II/3 Determination of antagonism of tetrabenazine-induced depression, in learning test, on rats
# Method: B. Knoll, J. Knoll: Pol. J. Pharmacol. Pharm. 34, 17-23 (1982).
# According to this test depression caused by tetrabenazine can be antagonized by the compounds of the Formula I. In Table 3 the numerical values of the series of test carried out by using the compound according to Example 7 are disclosed.
# [7] = system: tetrabenazine-induced depression; experiment: antagonism of tetrabenazine-induced depression in learning test: jumping test; type: in vivo, rat
# Excerpt: as §1
# a) Jumping test. Method: J. Knoll, B. Knoll: Arzneimittel Forschung 8, 339 (1958), 9, 633 (1959).
# isolated rat striatum [8] = experiment: dopaminergic activity increasing effect on isolated rat striatum preparations, ex vivo
# Method: (§2) Determination of the dopamineric activity increasing effect, on isolated rat striatum preparations
# (§3) Method: Kerecsen et al: Chromatography, the State of the Art, (Eds. Kalasz, Ettre) Akademiai Kiaoo Budepest (1985) page 195-203.
# In ex vivo tests the animals are treated s.c. for 3 weeks and the organ is removed 2 hours after administering the last injection.
# isolated rat striatum [9] = experiment: dopaminergic activity increasing effect on isolated rat striatum preparations, in vitro
# Excerpt: as §2, §3
# [10] = 10 mg/kg s.c., 30 minutes observation
# [11] = 1st day, tetrabenazine 0.5 mg/kg + 10 mg/kg compound, s.c. daily
# [12] = 2nd day, tetrabenazine 0.5 mg/kg + 10 mg/kg compound, s.c. daily
# [13] = 3rd day, tetrabenazine 0.5 mg/kg + 10 mg/kg compound, s.c. daily
# [14] = 4th day, tetrabenazine 0.5 mg/kg + 10 mg/kg compound, s.c. daily
# [15] = 5th day, tetrabenazine 0.5 mg/kg + 10 mg/kg compound, s.c. daily
# [16] = 1st day, tetrabenazine 0.5 mg/kg s.c. daily
# [17] = 2nd day, tetrabenazine 0.5 mg/kg s.c. daily
# [18] = 3rd day, tetrabenazine 0.5 mg/kg s.c. daily
# [19] = 4th day, tetrabenazine 0.5 mg/kg s.c. daily
# [20] = 5th day, tetrabenazine 0.5 mg/kg s.c. daily
structure (smiles),measurement,setting,value
"CNCCCN1c2ccccc2CCc2ccccc21 [DMI, desmethyl-imiprmine, reference compound]",IC50,[1],1 to 5 nM
same,effect on motility and on tetrabenazine induced depression of motility,[2]; DMI reference,inhibitory by itself rather than antagonistic against tetrabenazine induced depression of motility
CCCCC(Cc1ccccc1)NCCC (centres unmarked) [Example 11],LD50,in vivo; sc,110 mg/kg
same,"IC50, inhibition of noradrenaline releasing effect of tyramine",[3],can not be given
same,IC50,[1],100 nM
same,food intake,"[4]; 5 mg/kg, first hour",decreasing effect being approximately identical with that of about 0.5 mg/kg of amphetamine
same,motility,[2]; [10],do increase motility
"CCCNC(CCC)Cc1ccccc1 (centres unmarked) [Example 4, N-propyl-1-phenyl-2-pentylamine]",general motility,[5]; 0.5 mg/kg daily,without signs of increased general motility
same,performance over the control,[5]; 0.5 mg/kg daily,significant increase of performance over the control
same,increase of the intersignal reactions,[5]; 15 mg/kg daily,moderate
same,learning and retention,"[5]; 15 mg/kg daily, complete test-period",increased learning and retentions from the very first day
same,maintenance of acquired performance after termination of treatment,"[5]; 15 mg/kg, one-week learning period, 6 weeks after termination",completely maintain the performance acquired
same,LD50,in vivo; iv,27 mg/kg
same,LD50,in vivo; po,270 mg/kg
same,LD50,in vivo; sc,50 mg/kg
same,IC50,[3],1220 nM
same,IC50,[1],50 nM
same,food intake,"[4]; 5 mg/kg, first hour",decreasing effect being approximately identical with that of about 0.5 mg/kg of amphetamine
same,antagonism of motility inhibiting effect of 1 mg/kg of tetrabenazine,[2]; 1 mg/kg s.c.,completely antagonized
same,motility,[2]; [10],do increase motility
CCCC(Cc1ccccc1)NC (centres unmarked) [Example 10],LD50,in vivo; iv,18 mg/kg
same,LD50,in vivo; sc,175 mg/kg
same,IC50,[3],1800 nM
"CCCNC(Cc1ccccc1)c1ccccc1.Cl (centres unmarked) [Example 3, N-propyl-1,2-diphenyl-ethylamine-hydrochloride]",LD50,in vivo; sc,75 mg/kg
same,mortality,in vivo; sc,0%
same,IC50,[3],7470 nM
same,motility,[2]; [10],do not increase motility
CCCCCCC(Cc1ccccc1)NCCC (centres unmarked) [Example 13],LD50,in vivo; sc,> 50 mg/kg
same,mortality,in vivo; sc,0%
same,IC50,[3],501 nM
"COCCNC(C)Cc1ccccc1 (centres unmarked) [Example 7, N-(2-methoxyethyl)-1-phenyl-2-propyl-amine]",LD50,in vivo; sc,> 200 mg/kg
same,mortality,in vivo; sc,0%
same,F+ = % of animals showing a conditioned reaction,[6]; [11],34.60%
same,IR = number of intersignal reactions,[6]; [11],10.50
same,f+ = % of animals responding to unconditioned stimulus,[6]; [11],49.80%
same,f- = % of animals which do not respond even to unconditioned stimulus,[6]; [11],16.40%
same,F+ = % of animals showing a conditioned reaction,[6]; [12],62.20%
same,IR = number of intersignal reactions,[6]; [12],14.70
same,f+ = % of animals responding to unconditioned stimulus,[6]; [12],21.00%
same,f- = % of animals which do not respond even to unconditioned stimulus,[6]; [12],16.80%
same,F+ = % of animals showing a conditioned reaction,[6]; [13],69.20%
same,IR = number of intersignal reactions,[6]; [13],21.30
same,f+ = % of animals responding to unconditioned stimulus,[6]; [13],9.80%
same,f- = % of animals which do not respond even to unconditioned stimulus,[6]; [13],21.00%
same,F+ = % of animals showing a conditioned reaction,[6]; [14],64.90%
same,IR = number of intersignal reactions,[6]; [14],14.30
same,f+ = % of animals responding to unconditioned stimulus,[6]; [14],17.70%
same,f- = % of animals which do not respond even to unconditioned stimulus,[6]; [14],17.40%
same,F+ = % of animals showing a conditioned reaction,[6]; [15],76.10%
same,IR = number of intersignal reactions,[6]; [15],16.80
same,f+ = % of animals responding to unconditioned stimulus,[6]; [15],8.50%
same,f- = % of animals which do not respond even to unconditioned stimulus,[6]; [15],15.40%
same,IC50,[3],14100 nM
CCC(Cc1ccccc1)NC1CCCCC1 (centres unmarked) [Example 9],LD50,in vivo; sc,160 mg/kg
same,IC50,[3],799 nM
"COc1cc2c(cc1OC)C1CC(=O)C(CC(C)C)CN1CC2 (centres unmarked) [tetrabenazine, reference compound]",inhibition of the solid conditioned reflex,[7]; 5 mg/kg tetrabenazine,completely inhibited
same,F+ = % of animals showing a conditioned reaction,[6]; [16],9.58%
same,IR = number of intersignal reactions,[6]; [16],10.25
same,f+ = % of animals responding to unconditioned stimulus,[6]; [16],31.25%
same,f- = % of animals which do not respond even to unconditioned stimulus,[6]; [16],59.17%
same,F+ = % of animals showing a conditioned reaction,[6]; [17],8.50%
same,IR = number of intersignal reactions,[6]; [17],8.33
same,f+ = % of animals responding to unconditioned stimulus,[6]; [17],30.75%
same,f- = % of animals which do not respond even to unconditioned stimulus,[6]; [17],60.75%
same,F+ = % of animals showing a conditioned reaction,[6]; [18],11.42%
same,IR = number of intersignal reactions,[6]; [18],4.67
same,f+ = % of animals responding to unconditioned stimulus,[6]; [18],15.83%
same,f- = % of animals which do not respond even to unconditioned stimulus,[6]; [18],72.75%
same,F+ = % of animals showing a conditioned reaction,[6]; [19],9.8%
same,IR = number of intersignal reactions,[6]; [19],4.50
same,f+ = % of animals responding to unconditioned stimulus,[6]; [19],17.83%
same,f- = % of animals which do not respond even to unconditioned stimulus,[6]; [19],73.08%
same,F+ = % of animals showing a conditioned reaction,[6]; [20],17.67%
same,IR = number of intersignal reactions,[6]; [20],6.92
same,f+ = % of animals responding to unconditioned stimulus,[6]; [20],12.58%
same,f- = % of animals which do not respond even to unconditioned stimulus,[6]; [20],69.75%
same,motility,[2]; 1 mg/kg tetrabenazine,motility inhibiting effect
"C#CCN(C)[C@H](C)Cc1ccccc1 [Example 1-deprenyl, reference compound]",IC50,[1],7000 nM
"CCCC(Cc1ccccc1)NCCCO (centres unmarked) [Example 2, N-(3-hydroxypropyl)-1-phenyl-2-pentylamine]",LD50,in vivo; iv,50 mg/kg
same,LD50,in vivo; sc,> 200 mg/kg
same,mortality,in vivo; sc,0%
same,IC50,[3],368 nM
"CCCNC(Cc1ccccc1)Cc1ccccc1.Cl [Example 5, N-propyl-1,3-diphenyl-2-propylamine-hydrochloride]",LD50,in vivo; sc,> 150 mg/kg
same,mortality,in vivo; sc,0%
same,motility,[2]; [10],do increase motility
CCCCC(Cc1ccccc1)NC(C)Cc1ccccc1 (centres unmarked) [Example 12],LD50,in vivo; iv,16 mg/kg
same,LD50,in vivo; sc,> 25 mg/kg
same,IC50,[3],3460 nM
CCNC(CC)Cc1ccccc1 (centres unmarked) [Example 8],LD50,in vivo; iv,46 mg/kg
same,LD50,in vivo; sc,195 mg/kg
same,IC50,[3],1890 nM
"CCCC(Cc1ccccc1)NC(C)C.Cl (centres unmarked) [Example 1, N-iso-propyl-1-phenyl-2-pentylamine-hydrochloride]",LD50,in vivo; sc,135 mg/kg
same,IC50,[3],7470 nM
"CCCNC(CC)Cc1ccccc1 (centres unmarked) [Example 6, N-propyl-1-phenyl-2-butyl-amine]",antagonism of the depressive effect of tetrabenazine,[7]; 15 mg/kg,entirely antagonized
same,inhibition of the solid conditioned reflex,[7]; 15 mg/kg (high doses),can not be inhibited
same,LD50,in vivo; iv,40 mg/kg
same,LD50,in vivo; po,300 mg/kg
same,LD50,in vivo; sc,140 mg/kg
same,IC50,[3],346 nM
same,DOPAC concentration of the bath of the organ,"isolated rat striatum [8]; daily dose 0.25, s.c. 3 weeks",222 pmol/g/min
same,dopamine (DA) concentration of the bath of the organ,"isolated rat striatum [8]; daily dose 0.25, s.c. 3 weeks",257 pmol/g/min
same,DOPAC concentration of the bath of the organ,"isolated rat striatum [8]; daily dose 5.0, s.c. 3 weeks",223 pmol/g/min
same,dopamine (DA) concentration of the bath of the organ,"isolated rat striatum [8]; daily dose 5.0, s.c. 3 weeks",189 pmol/g/min
same,DOPAC concentration of the bath of the organ,isolated rat striatum [9]; dose 0.3,172 pmol/g/min
same,dopamine (DA) concentration of the bath of the organ,isolated rat striatum [9]; dose 0.3,214 pmol/g/min
same,DOPAC concentration of the bath of the organ,isolated rat striatum [9]; dose 1.0,190 pmol/g/min
same,dopamine (DA) concentration of the bath of the organ,isolated rat striatum [9]; dose 1.0,366 pmol/g/min
same,DOPAC concentration of the bath of the organ,isolated rat striatum [9]; dose 3.0,331 pmol/g/min
same,dopamine (DA) concentration of the bath of the organ,isolated rat striatum [9]; dose 3.0,290 pmol/g/min
same,DOPAC concentration of the bath of the organ,isolated rat striatum [9]; dose 10.0,537 pmol/g/min
same,dopamine (DA) concentration of the bath of the organ,isolated rat striatum [9]; dose 10.0,477 pmol/g/min
same,IC50,[1],500 nM
same,food intake,"[4]; rats fasted for 96 hours, similar dose (15 mg/kg)",does not influence the food intake
same,food intake,"[4]; well-fed satiated rats, 15 mg/kg p.o. or s.c.",does not change food intake
same,antagonism of motility inhibiting effect of 1 mg/kg of tetrabenazine,[2]; 2.5 mg/kg s.c.,significantly antagonized
same,motility,[2]; [10],do not increase motility
